Reference: ChEMBL document CHEMBL1201862, “PubChem BioAssay data set” (2004)
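96-well plates; 48 h exposure; 5 concentrations. Endpoints by linear interpolation between flanking doses. Not reached: highest tested concentration assigned. GI50 is the concentration that inhibits growth by half.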 Activity calls are given as the source filed them. No stated cut-off is given here; in the data, active = GI50 up to about 1.1 µM and inactive = higher.

Tests used:
Assay in all cases: NCI-60 cell line screen, 48 h
[1] = test system: 786-0
[2] = test system: A498
[3] = test system: A549
[4] = test system: ACHN
[5] = test system: BT-549
[6] = test system: CAKI-1
[7] = test system: CCRF-CEM
[8] = test system: COLO 205
[9] = test system: DU-145
[10] = test system: EKVX
[11] = test system: HCC 2998
[12] = test system: HCT-116
[13] = test system: HCT-15
[14] = test system: HL-60
[15] = test system: HOP-92
[16] = test system: HT-29
[17] = test system: Hs-578T
[18] = test system: IGROV-1
[19] = test system: K562
[20] = test system: KM12
[21] = test system: LOX IMVI
[22] = test system: M14
[23] = test system: MCF7
[24] = test system: MDA-MB-231
[25] = test system: MDA-MB-435
[26] = test system: MDA-N
[27] = test system: MOLT-4
[28] = test system: Malme-3M
[29] = test system: NCI-H226
[30] = test system: NCI-H23
[31] = test system: NCI-H460
[32] = test system: NCI-H522
[33] = test system: NCI/ADR-RES
[34] = test system: OVCAR-3
[35] = test system: OVCAR-4
[36] = test system: OVCAR-5
[37] = test system: OVCAR-8
[38] = test system: PC-3
[39] = test system: RPMI-8226
[40] = test system: RXF 393
[41] = test system: SF-268
[42] = test system: SF-295
[43] = test system: SF-539
[44] = test system: SK-MEL-28
[45] = test system: SK-MEL-2
[46] = test system: SK-MEL-5
[47] = test system: SK-OV-3
[48] = test system: SN12C
[49] = test system: SNB-19
[50] = test system: SNB-75
[51] = test system: SW-620
[52] = test system: T47D
[53] = test system: TK-10
[54] = test system: U-251
[55] = test system: UACC-257
[56] = test system: UACC-62
[57] = test system: UO-31

In the case of `CC(C)(C)C1(O)C=C(O)C(=O)N1NC(=O)c1ccccc1Nc1ccccc1` (configuration not stated), the GI50 [1] was 56.9 µM (inactive), the GI50 [2] was 32.1 µM (inactive) and the GI50 [3] was > 100 µM (inactive). For the same compound, the GI50 [4] was 47.5 µM (inactive), the GI50 [5] was 28 µM (inactive) and the GI50 [6] was > 100 µM (inactive). For the same compound, the GI50 [7] was 8.43 µM (inactive), the GI50 [8] was 29 µM (inactive) and the GI50 [9] was > 100 µM (inactive). For the same compound, the GI50 [10] was 53.6 µM (inactive), the GI50 [11] was 19.2 µM (inactive) and the GI50 [12] was 38.6 µM (inactive). The GI50 [13] was 22.9 µM, the GI50 [14] was 0.847 µM (active) and the GI50 [15] was 38.7 µM (inactive). For the same compound, the GI50 [16] was 41.1 µM (inactive), the GI50 [17] was 87.1 µM (inactive) and the GI50 [18] was 66.7 µM (inactive). For the same compound, the GI50 [19] was 20.2 µM (inactive), the GI50 [20] was 40.9 µM (inactive) and the GI50 [21] was 17.5 µM (inactive). The GI50 [22] was 76.4 µM (inactive), the GI50 [23] was 33.3 µM (inactive) and the GI50 [24] was 42 µM (inactive). The GI50 [25] was 40.6 µM (inactive), the GI50 [26] was 62.2 µM (inactive) and the GI50 [27] was 2.4 µM (inactive). For the same compound, the GI50 [28] was 32.7 µM (inactive), the GI50 [29] was 48.2 µM (inactive) and the GI50 [30] was 41 µM (inactive). The GI50 [31] was 34.4 µM (inactive), the GI50 [32] was 16.6 µM (inactive) and the GI50 [33] was 27.7 µM (inactive). The GI50 [34] was 6.84 µM (inactive), the GI50 [35] was 32.9 µM (inactive) and the GI50 [36] was 84.5 µM (inactive). For the same compound, the GI50 [37] was 37.9 µM (inactive), the GI50 [38] was 40 µM (inactive) and the GI50 [39] was 54.2 µM (inactive). The GI50 [40] was 60.5 µM (inactive), the GI50 [41] was 24.7 µM (inactive) and the GI50 [42] was 25.2 µM (inactive). For the same compound, the GI50 [43] was 41.4 µM (inactive), the GI50 [44] was 50.2 µM (inactive) and the GI50 [45] was 24.7 µM (inactive). For the same compound, the GI50 [46] was 35.4 µM (inactive), the GI50 [47] was 25.4 µM (inactive) and the GI50 [48] was 60.5 µM (inactive). The GI50 [49] was 54.8 µM (inactive), the GI50 [50] was 61.4 µM (inactive) and the GI50 [51] was 34 µM (inactive). For the same compound, the GI50 [52] was 36.1 µM (inactive), the GI50 [53] was 46.3 µM (inactive) and the GI50 [54] was 18.2 µM (inactive). For the same compound, the GI50 [55] was 24.2 µM (inactive), the GI50 [56] was 24.8 µM (inactive) and the GI50 [57] was > 100 µM (inactive).
